Legend:
[1] = In vitro stability of labeled product in mouse serum (radiochemical purity after 48 h); type: in vitro ADME
Protocol: (§1) HPLC: standard UV peak Rt=10.548 min, radioactive peak Rt=10.809 min, corresponding to the peak position of the standard.

[2] = male, SD, rat, in vivo, iv
Method: About 0.1-0.2 mL of blood was collected from jugular vein plexus of the experimental animals at 5 min, 15 min, 30 min, 1 h, 2 h, 3 h, 4 h, 5 h, 6 h, 8 h, 12 h, 24 h, 48 h, 72 h, 96 h, 120 h, 144 h, and 168 h after the administration, and the rats were weighed for subsequent assay. Blood was collected from 6 males in each group at each time point, and 12 animals were cross-sampled. Each sample was subjected to gamma counting for 30 s.

LNCap tumor-bearing mice = assay: PET imaging after tail vein injection; type: in vivo; details: single intravenous administration, 200 μCi
Protocol: (§2) Method: LNCap tumor-bearing mice were injected with the complex ^89Zr-Dar-PSMA-617 (200 μCi) prepared in Example 9 through tail vein, while dynamic scan was performed for 60 min during the administration, and static whole body scan was performed for 10 min at different time points during 2-216 h after the administration. Refer to FIG. 1 for the mouse PET scanning image.
as §2, with “complex” for “complex ^89Zr-Dar-PSMA-617”, “Example 7” for “Example 9”, “vein,” for “vein, while”, “and the” for “and”, “points of 2-192” for “points during 2-216”, “FIG. 2” for “FIG. 1”
Method: LNCap tumor-bearing mice were injected with the complex ^68Ga-Dar-PSMA-617 (200 μCi) prepared in Example 10 through tail vein, dynamic scan was performed for 60 min during the administration, and the static whole body scan was performed for 10 min at different time points of 2-6 h after the administration. Refer to FIG. 3 for the mouse PET scanning image.

[3] = type: physicochemical; details: 48 h
Protocol: as §1

LNCap cells [4] = assay: Experiment A efflux experiment; type: cell-based; details: then 24 h in complete medium
Protocol: (§3) LNCap cells were cultured to logarithmic growth phase. After digestion with pancreatin, the resultant mixture was adjusted with complete medium into a cell suspension with a cell density of […]. Cells were inoculated in 24-well plate with 0.5-1.0 mL cells per well and the number of 1×10^5 cells per well (inoculated 2 d in advance for cell experiment). ^177Lu-Dar, ^177Lu-Dar-PSMA-617, ^177Lu-DOTA, and ^177Lu-DOTA-PSMA-617 were respectively diluted with a basic medium (with 1% HSA added) to 10 μCi/mL for subsequent use.
(§4) Cells were incubated in 37° C. incubator for 1 h, 4 h, and 24 h.
Efflux experiment: after the incubation was completed, the cell suspension was collected, washed once with 0.5 mL of complete medium, added with 0.5 mL of complete medium, after resuspension, the resultant mixture was placed into original wells, incubated at 37° C. for 24 h, and then the supernatant was collected, and washed once with 0.5 mL of PBS. Cell pellet was collected after centrifugation of the supernatant and PBS washing solution; and 0.5 mL of 1 M lysis solution was utilized to digest and lyse cells in the original wells, and combined with the cell pellet.
(§5) Cell pellet was collected for gamma counting. Both the blank and standard tubes were assayed simultaneously in each test.
Cell efflux rate=CPM of the efflux experiment cell lysate/CPM of the uptake experiment cell lysate×100%

LNCap cells [5] = assay: Experiment A cell uptake experiment (cell binding rate); type: cell-based; details: for uptake rate of the blocking group: unlabeled ligand 200 times that of labeled subject; for uptake rate: 37° C.
Protocol: as §3
Unlabeled ligands Dar, DOTA, Dar-PSMA-617, and DOTA-PSMA-617 were respectively formulated to be 10 μg/mL and 25 μg/mL with basic medium (with 1% HSA added) for subsequent use.
as §4
Uptake experiment: blocking groups were set in cell uptake experiment, and unlabeled ligands were added in an amount of 200 times that of labeled subjects. After incubation was completed, the cell suspension was collected, followed by centrifugation at 1500 rpm for 5 min, cell pellet was collected, the supernatant was removed, the cell pellet was washed once with 0.5 mL of pre-cooled PBS, and the resultant cell pellet was collected.
as §5
Cell binding rate=CPM of the cell lysate/CPM of the standard tube×100%

LNCap cells [6] = assay: Experiment A internalization experiment; type: cell-based
Protocol: as §3, §4
Internalization experiment: after incubation was completed, the cell suspension was collected, 0.5 mL of pre-cooled pickling solution was added, after incubation for 1 min at room temperature, the pickling solution was removed; and the resultant mixture was washed once with 0.5 mL of PBS, and cell pellet was collected.
as §5
Cell internalization rate=CPM of the cell lysate after acid pickling/CPM of the uptake experiment cell lysate×100%

[7] = tested on: LNCap tumor-bearing mice animal models; assay: ^177Lu-Dar-PSMA-617 treatment study (tumor size, body weight, clinical observation); type: in vivo
Protocol: LNCap tumor-bearing mice animal models were used.
Experimental Groups: • (A)^177Lu-Dar-PSMA-617 low dosage 0.25 mCi (n=7); • (B)^177Lu-Dar-PSMA-617 medium dosage 0.5 mCi (n=10); • (C)^177Lu-Dar-PSMA-617 high dosage 1 mCi (n=10).
Positive Control Groups: • (D)^177Lu-DOTA-PSMA-617 0.5 mCi (n=7); • (E)^177Lu-DOTA-PSMA-617 1 mCi (n=10).
Negative Control Groups: • (F) ^177LuCl3 1 mCi (n=10); • (G) normal saline (n=10)
Method: the day of administration was recorded as D-0, and body weight and tumor size were measured every day or every other day. After administration of ^177Lu-Dar-PSMA-617 (Group C), SPECT scan was performed at 4 h, 24 h, 72 h, 120 h, and 240 h after the administration; the control groups ^177Lu-DOTA-PSMA-617 (Group E) and ^177LuCl3 (Group F) were respectively subjected to SPECT scan at 2 h, 24 h, 72 h, and 120 h (240 h) (refer to FIG. 7, group C, group E, and group F in sequence from top to bottom). The animals were kept stationary, and CT scan was completed before/after the SPECT scan. Prior to the scan, the animals were subjected to respiratory anesthesia with isoflurane through an anesthesia machine, and the animals having undergone anesthesia induction were placed on a SPECT/CT bed. During the scan, the animals continuously inhaled isoflurane to maintain anesthesia effect. Each bed was statically scanned for 10-30 min and scan time was recorded.

[8] = tested on: MC38/MC38-hPDL1 bilateral tumor-bearing mice; assay: ^89Zr-Dar-KN035 PET imaging study; type: in vivo
Protocol: Method: MC38/MC38-hPDL1 bilateral tumor-bearing mice were injected with the ^89Zr-Dar-KN035 (100 μCi) through tail vein, wherein MC38 was a tumor low-expressing PDL1, and MC38-hPDL1 was a tumor high-expressing PDL1. Dynamic scan was performed for 60 min during the administration, and static whole body scan was performed for 10 min at different time points of 1-168 h after the administration. A mouse PET scanning image is shown in FIG. 10, with MC38 on the left and MC38-hPDL1 on the right.

Question: Which “radiochemical purity after incubation in mouse serum” value [1] does the source give for `Cc1cc2c(O)c(c1)CN(CC(=O)O)Cc1cccc(n1)CN(CC(=O)NC[C@H]1CC[C@H](C(=O)N[C@@H](Cc3ccc4ccccc4c3)C(=O)NCCCC[C@H](NC(=O)N[C@@H](CCC(=O)O)C(=O)O)C(=O)O)CC1)Cc1cc(C)cc(c1O)CN(CC(=O)O)Cc1cccc(n1)CN(CC(=O)O)C2` [^89Zr-Dar-PSMA-617, metal not drawn] here?
Answer: Its value is 96%.

Question: And the “half-life period in blood” value [2]?
Answer: Its value is 4.57 h.

Question: And the “main distribution of radioactive substances” value (LNCap tumor-bearing mice)?
Answer: The value was “mainly distributed in the bladder and kidneys”.

Question: And the “radiochemical purity after incubation in normal saline” value ([3]; normal saline, 37° C. water bath incubator)?
Answer: The value was 98%.

Question: What about the “radiochemical purity after being placed at room temperature” value ([3]; room temperature) of the same molecule?
Answer: The value was 98%.

Question: Which results are given for `O=C([O-])CN1CCN(CC(=O)[O-])CCN(CC(=O)[O-])CCN(CC(=O)[O-])CC1.[177Lu+3].[H+]` [^177Lu-DOTA]?
Answer: efflux rate (LNCap cells [4]; 1 h incubation): 76.83%; efflux rate (LNCap cells [4]; 4 h incubation): 63.22%; efflux rate (LNCap cells [4]; 24 h incubation): 9.38%; uptake rate of the blocking group (LNCap cells [5]; 1 h): 0.26%; uptake rate (LNCap cells [5]; 1 h incubation): 0.22%; uptake rate of the blocking group (LNCap cells [5]; 4 h): 0.24%; uptake rate (LNCap cells [5]; 4 h incubation): 0.20%; uptake rate of the blocking group (LNCap cells [5]; 24 h): 1.97%; uptake rate (LNCap cells [5]; 24 h incubation): 2.01%; internalization rate (LNCap cells [6]; 1 h incubation): 35.46%; internalization rate (LNCap cells [6]; 4 h incubation): 165.46%; internalization rate (LNCap cells [6]; 24 h incubation): 8.33%

Question: For `[177Lu+3].[Cl-].[Cl-].[Cl-]` [^177LuCl3], which body weight change ([7]; 1 mCi (Group C, Group F)) is on record?
Answer: Its body weight change is “decrease rapidly”.

Question: And the “adverse effects (conclusion)” value ([7]; 1 mCi (Group F))?
Answer: Its value is “severe adverse effects”.

Question: What about the “gross anatomy of dead mice” value ([7]; 1 mCi (Group F)) of the same molecule?
Answer: Its value is “skeletal darkening and blood stasis of bone marrow”.

Question: And the animal clinical observation ([7]; 1 mCi (Group F), starting from D-5, all animals at the later stage)?
Answer: The animal clinical observation was “weight loss and arched back”.

B1: ^89Zr-Dar-KN035 (conjugate, chains of the INN, looked up)
VH: QVQLVESGGGLVQPGGSLRLSCAASGKMSSRRCMAWFRQAPGKERERVAKLLTTSGSTYLADSVKGRFTISRDNSKNTVYLQMNSLRAEDTAVYYCAADSFEDPTCTLVTSSGAFQYWGQGTLVTVSS
modifications: 89Zr with Dar chelator
Question: Which “uptake in tumor high-expressing PDL1 (MC38-hPDL1)” value ([8]; 100 μCi tail vein, PET 1-168 h) does the source give for B1 here?
Answer: Its value is “significantly taken up”.

Question: And the “uptake in tumor low-expressing PDL1 (MC38)” value ([8]; 100 μCi tail vein, PET 1-168 h)?
Answer: Its value is “almost not taken up”.

Question: What about the tumor selectivity ([8]; MC38-hPDL1 versus MC38) of the same molecule?
Answer: The tumor selectivity was “good tumor selectivity”.

— patent US20230381348A1, “BIFUNCTIONAL MACROCYCLIC CHELATE, CONJUGATE, METAL COMPLEX AND USE THEREOF” (Jyams Pet Research & Development Limited, priority 2021, published 2023)
